Laboratory results taken from patent US20130172408A1, “Medicaments Based on Dinuclear Arene Ruthenium Complexes Comprising Bridging Thiolato, Selenolato or Alkoxo Ligands” (Universite de Neuchatel, priority 2010, published 2013).
Where “and” joins values, the source holds several entries; their conditions need not be identical. Equal entries are not always repeated. Where two headings read alike, the source gives them in different places.

What was measured:
[1] = test system: A2780 human ovarian cancer cells; assay: MTT assay, inhibition of cell growth, A2780; type: cell-based
Protocol: (§1) Human A2780 and A2780cisR ovarian carcinoma cells were obtained from the European Centre of Cell Cultures (ECACC, Salisbury, UK) and maintained in culture as described by the provider. The cells were routinely grown in RPMI 1640 medium with GlutaMAX™ containing 5% foetal calf serum (FCS) and antibiotics (penicillin and streptomycin) at 37° C. and 5% CO2.
(§2) The antiproliferative activity of complexes 9-20 was evaluated against the human ovarian A2780 cancer cell line and its cisplatin-resistant derivative A2780cisR using the MTT assay, which measures mitochondrial dehydrogenase activity as an indication of cell viability. For the evaluation of growth inhibition tests, the cells were seeded in 96-well plates (25×10^3 cells per well) and grown for 24 h in complete medium. Complexes were dissolved in DMSO and added to the required concentration to the cell culture for 72 h incubation. Solutions of the compounds were applied by diluting a freshly prepared stock solution of the corresponding compound in aqueous RPMI medium with GlutaMAX™ (20 mM). Following drug exposure, 3-(4,5-dimethylthiazol-2-yl)-2,5-diphenyltetrazolium bromide (MTT) was added to the cells at a final concentration of 0.25 mg/mL and incubated for 2 h, then the culture medium was aspirated and the violet formazan (artificial chromogenic precipitate of the reduction of tetrazolium salts by dehydrogenases and reductases) dissolved in DMSO. The optical density of each well (96-well plates) was quantified three times in triplicates at 540 nm using a multiwall plate reader (iEMS Reader MF, Labsystems, US), and the percentage of surviving cells was calculated from the ratio of absorbance of treated to untreated cells. The IC50 values for the inhibition of cell growth were determined by fitting the plot of the logarithmic percentage of surviving cells against the logarithm of drug concentration using a linear regression function. The median value and the median absolute deviation were obtained from the Excel™ software (Microsoft™) and those values are reported in Table 2.
(§3) The toxicity of further compounds in accordance with the invention shown in FIGS. 9A and 9B and of the prior art compounds PA1 and PA2 was assessed as described in Example 6.

[2] = test system: A2780cisR human ovarian cancer cells (cisplatin-resistant); assay: MTT assay, inhibition of cell growth, A2780cisR; type: cell-based
Protocol: as §1, §2, §3

Solubility (qualitative) = type: physicochemical; details: water and organic solvents
Excerpt: The spectroscopic data for the analogues [18]Cl, [19]Cl and [20]Cl is in excellent agreement with that reported previously Mashima et al., Schacht et al. Chérioux et al., cited above).

[3] = Stability by 1H NMR spectroscopy; type: physicochemical; details: 12 hours at 37° C. in DMSO-d6, in D2O/DMSO-d6 (95:5), and in DMSO-d6 with two drops of RPMI 1640 medium containing 5% foetal calf serum
[4] = Catalytic oxidation of glutathione to glutathione disulfide in aqueous solution
[5] = Catalytic oxidation of cysteine to cystine in aqueous solution
[6] = test system: PLC/PRF/5 human liver cancer cells; details: MTT assay, from JP 7089855; cited from earlier work
[7] = 72 h incubation, MTT, median value (Table 2), read-out: IC50 A2780
[8] = 72 h incubation, MTT, median value (Table 2), read-out: IC50 A2780cisR
[9] = as described in Example 6 (Table 3), read-out: Average IC50 A2780
[10] = as described in Example 6 (Table 3), read-out: Average IC50 A2780cisR

Row | IC50 [1, 7] | IC50 [2, 8] | IC50 [1, 9] | IC50 [2, 10] | Molecule | other results
1 | 2200 nM | 2700 nM | – | – | [(C6H6—(CH2)2—O—C(O)—C6H4-p-O—(CH2)6CH3)2Ru2(SPh)3]^+ [[9]Cl] | –
2 | – | – | 500 nM | 500 nM | [Ru2(p-C6Me6)2(p-SC6H4OH)3]^+ [Compound 22] | –
3 | 820 nM | 1360 nM | 815 nM | 1360 nM | COc1ccc(C=CC(=O)OCCc2ccccc2)cc1.COc1ccc(C=CC(=O)OCCc2ccccc2)cc1.[Cl-].[Ru+2].[Ru+2].[S-]c1ccccc1.[S-]c1ccccc1.[S-]c1ccccc1 [[11]Cl, [trans-(C6H6—(CH2)2—O—C(O)—CH═CH—C6H4-p-O—CH3)2Ru2(SPh)3]^+] | –
4 | 380 nM | 480 nM | – | – | [(C6H6)2Ru2(SPh)3]^+ [[17]C1] | IC50 ([1]; as described in Example 6 (Table 3), listed as 17, read-out: Average IC50 A2780): 240 nM and 377 nM; IC50 ([2]; as described in Example 6 (Table 3), listed as 17, read-out: Average IC50 A2780cisR): 253 nM and 477 nM; Solubility (Solubility (qualitative)): soluble in water and in organic solvents
5 | 240 nM | 250 nM | – | – | Cc1ccc(C(C)C)cc1.Cc1ccc(C(C)C)cc1.[Cl-].[Ru+2].[Ru+2].[S-]c1ccccc1.[S-]c1ccccc1.[S-]c1ccccc1 [[18]C1, [(p-^iPrC6H4Me)2Ru2(SPh)3]^+] | –
6 | 130 nM | 80 nM | 130 nM | 77 nM | [(p-^iPrC6H4Me)2Ru2(S-p-C6H4Me)3]^+ [[20]C1] | Stability (1H NMR signals) [3]: stable under these conditions; Catalysis of the reaction of Glutathione (GSH) to form glutathione disulfide (GSSG) [4]: very high efficiency; Catalysis of the reaction of Cysteine (Cys) to form Cystine [5]: very high efficiency
7 | – | – | 1930 nM | 1550 nM | CC1=C(C)C(C)C(C)=C1C.CC1=C(C)C(C)C(C)=C1C.Cc1ccc(S)cc1.Cc1ccc(S)cc1.Cc1ccc(S)cc1.[Ru+3].[Ru+3] [PA2, [(CsMe5)2Ru2(p-SC6H4Me)3]^+, reference compound] | –
8 | 490 nM | 560 nM | 420 nM | 545 nM | COc1ccc(C=CC(=O)OCCCCc2ccccc2)cc1.COc1ccc(C=CC(=O)OCCCCc2ccccc2)cc1.[Cl-].[Ru+2].[Ru+2].[S-]c1ccccc1.[S-]c1ccccc1.[S-]c1ccccc1 [[12]Cl, [trans-(C6H6—(CH2)4—O—C(O)—CH═CH—C6H4-p-O—CH3)2Ru2(SPh)3]^+] | –
9 | – | – | 533 nM | 1470 nM | [Ru2(p-MeC6H4Pr^i)2(p-SC6H4OH)3]^+ [Compound 21] | –
10 | – | – | 3050 nM | 2190 nM | CC1=C(C)C(C)C(C)=C1C.CC1=C(C)C(C)C(C)=C1C.Sc1ccccc1.Sc1ccccc1.Sc1ccccc1.[Ru+3].[Ru+3] [PA1, [(CsMes)2Ru2(p-SC6H5)3]^+, reference compound] | –
11 | 400 nM | 1200 nM | 433 nM | 1200 nM | Cc1c(C)c(C)c(C)c(C)c1C.Cc1c(C)c(C)c(C)c(C)c1C.[Cl-].[Ru+2].[Ru+2].[S-]c1ccccc1.[S-]c1ccccc1.[S-]c1ccccc1 [[19]Cl, [(C6Me6)2Ru2(SPh)3]^+] | –
12 | 4900 nM | 5600 nM | – | – | CCCCCCCOc1ccc(C(=O)OCCCCc2ccccc2)cc1.CCCCCCCOc1ccc(C(=O)OCCCCc2ccccc2)cc1.[Cl-].[Ru+2].[Ru+2].[S-]c1ccccc1.[S-]c1ccccc1.[S-]c1ccccc1 [[10]Cl, [(C6H6—(CH2)4—O—C(O)—C6H4-p-O—(CH2)6CH3)2Ru2(SPh)3]^+] | –
13 | – | – | – | – | Cc1c(C)c(C)[c-](C)c1C.Cc1c(C)c(C)[c-](C)c1C.[Ru+3].[Ru+3].[S-]c1ccccc1.[S-]c1ccccc1.[S-]c1ccccc1 [PA1, [(CsMes)2Ru2(p-SC6H5)3]^+, reference compound] | IC50 [6]: 131 µg/mL
